Measured values: paper PMC12647645, “Structural interactions of BWC0977 with Klebsiella pneumoniae topoisomerase IV and biochemical basis of its broad-spectrum activity” (Communications Biology, 2025)
≈ marks a conversion by molar mass, not a printed value.

What was measured:
E. coli = details: ref 8 (Flamm et al., 2017); cited from earlier work
[1] = test system: E. coli MG1655 GyrA D82N, ParC D79N; test: microbe, parasite or virus in culture; assay type: cell-based; details: Escherichia coli
A. baumannii ATCC 19606 = test: MIC broth microdilution; assay type: cell-based; details: Acinetobacter baumannii, ATCC19606
S. aureus ATCC 29213 = test: MIC broth microdilution; assay type: cell-based; details: Staphylococcus aureus, ATCC29213
E. coli BAA 2469 = test: microbe, parasite or virus in culture; assay type: cell-based; details: Escherichia coli, BAA2469
K. pneumoniae KPNIH1 = test: microbe, parasite or virus in culture; assay type: cell-based; details: Klebsiella pneumoniae
[2] = test system: E. coli MG1655 GyrA M120A, ParC M118A; test: microbe, parasite or virus in culture; assay type: cell-based; details: Escherichia coli
E. faecalis = test system: E. faecalis; design: method as in ref 7 (Arends et al., 2019); details: ref 7 (Arends et al., 2019); cited from earlier work
Human topo IIß = Human topo IIß (Homo sapiens, UniProt Q02880); test: Human topo IIß decatenation assay; assay type: biochemical
Procedure: (§1) Human topo IIα (0.9 nM) and topo IIß (2.2 nM) decatenation assays were performed following the same protocol used for bacterial topoisomerase IV decatenation assays. The assay buffer was made of 50 mM Tris. HCl (pH 7.5), 125 mM NaCl, 10 mM MgCl2, 5 mM DTT, and 100 μg/mL albumin.

K. pneumoniae ATCC 13883 = test: MIC broth microdilution; assay type: cell-based; details: Klebsiella pneumoniae, ATCC13883
P. aeruginosa BAA 2797 = test: microbe, parasite or virus in culture; assay type: cell-based; details: Pseudomonas aeruginosa, BAA2797
K. pneumoniae = details: ref 7 (Arends et al., 2019); cited from earlier work
K. pneumoniae BAA 2784 = test: microbe, parasite or virus in culture; assay type: cell-based; details: Klebsiella pneumoniae, BAA2784
[3] = test system: E. coli MG1655 (GyrA WT, ParC WT); test: microbe, parasite or virus in culture; assay type: cell-based; details: Escherichia coli
E. coli ATCC 25922 [4] = test: MIC broth microdilution; assay type: cell-based; details: Escherichia coli, ATCC25922
E. coli BAA 2471 = test: microbe, parasite or virus in culture; assay type: cell-based; details: Escherichia coli, BAA2471
E. coli ATCC 25922 [5] = test: Resistant mutant generation by serial passage method; assay type: cell-based; details: Escherichia coli, read-out: MIC, serial passage
P. aeruginosa BAA 2794 = test: microbe, parasite or virus in culture; assay type: cell-based; details: Pseudomonas aeruginosa, BAA2794
[6] = test system: E. coli MG1655 GyrA WT, ParC D79N; test: microbe, parasite or virus in culture; assay type: cell-based; details: Escherichia coli
K. pneumoniae BAA 2782 = test: microbe, parasite or virus in culture; assay type: cell-based; details: Klebsiella pneumoniae, BAA2782
P. aeruginosa gyrase = P. aeruginosa gyrase (Pseudomonas aeruginosa, UniProt P48372+Q9I7C2); test: biochemical
E. faecalis ATCC 29212 = test: MIC broth microdilution; assay type: cell-based; details: Enterococcus faecalis, ATCC29212
[7] = test system: E. coli MG1655 GyrA WT, ParC R119K; test: microbe, parasite or virus in culture; assay type: cell-based; details: Escherichia coli
E. cloacae = details: ref 7 (Arends et al., 2019); cited from earlier work
[8] = test system: E. coli MG1655 GyrA R121K, ParC WT; test: microbe, parasite or virus in culture; assay type: cell-based; details: Escherichia coli
P. aeruginosa ATCC 27853 = test: MIC broth microdilution; assay type: cell-based; details: Pseudomonas aeruginosa, ATCC27853
A. baumannii BAA 2885 = test: microbe, parasite or virus in culture; assay type: cell-based; details: Acinetobacter baumannii, BAA2885
[9] = molecular target: P. aeruginosa topoisomerase IV (Pseudomonas aeruginosa, UniProt Q9HUJ8+Q9HUK1); test: Topoisomerase IV decatenation assay, P. aeruginosa; assay type: biochemical
Procedure: Topoisomerase IV decatenation reactions were performed using 2.5 nM E. coli enzyme and 60 ng kinetoplast DNA (kDNA) in an assay buffer containing 50 mM HEPES-KOH (pH 7.6), 100 mM potassium glutamate, 10 mM magnesium acetate, 10 mM DTT, 1 mM ATP, and 50 μg/mL albumin. Assays with P. aeruginosa topoisomerase IV (3 nM) were conducted in a similar buffer but with 50 mM HEPES-KOH (pH 7.9), 100 mM potassium glutamate, 6 mM magnesium acetate, 6 mM DTT, 1 mM ATP, 2 mM spermidine, and 50 μg/mL albumin. For S. aureus topoisomerase IV assay, the reactions contained 4 nM enzyme in an assay buffer composed of 50 mM Tris-HCl (pH 7.5), 5 mM MgCl₂, 5 mM DTT, 1.5 mM ATP, 350 mM potassium glutamate, and 0.05 mg/mL albumin. The procedures followed were consistent with those used in the supercoiling assays. Decatenated minicircles were resolved on 0.8% agarose gels, while the kDNA substrate remained in the wells. Gels were stained with 0.8 μg/mL ethidium bromide solution for 10 min, followed by destaining. DNA bands were visualized using a gel documentation system, and compound inhibition analysis was carried out using the same procedures described for the supercoiling assays.

Human topo IIα = Human topo IIα (Homo sapiens, UniProt P11388); test: Human topo IIα decatenation assay; assay type: biochemical; details: read-out: IC50 Human topo IIα decatenation
Procedure: as §1

S. aureus = details: ref 8 (Flamm et al., 2017); cited from earlier work
[10] = test system: E. coli MG1655 GyrA D82N, ParC WT; test: microbe, parasite or virus in culture; assay type: cell-based; details: Escherichia coli

Chain of P. aeruginosa topoisomerase IV (Q9HUK1 whole entry): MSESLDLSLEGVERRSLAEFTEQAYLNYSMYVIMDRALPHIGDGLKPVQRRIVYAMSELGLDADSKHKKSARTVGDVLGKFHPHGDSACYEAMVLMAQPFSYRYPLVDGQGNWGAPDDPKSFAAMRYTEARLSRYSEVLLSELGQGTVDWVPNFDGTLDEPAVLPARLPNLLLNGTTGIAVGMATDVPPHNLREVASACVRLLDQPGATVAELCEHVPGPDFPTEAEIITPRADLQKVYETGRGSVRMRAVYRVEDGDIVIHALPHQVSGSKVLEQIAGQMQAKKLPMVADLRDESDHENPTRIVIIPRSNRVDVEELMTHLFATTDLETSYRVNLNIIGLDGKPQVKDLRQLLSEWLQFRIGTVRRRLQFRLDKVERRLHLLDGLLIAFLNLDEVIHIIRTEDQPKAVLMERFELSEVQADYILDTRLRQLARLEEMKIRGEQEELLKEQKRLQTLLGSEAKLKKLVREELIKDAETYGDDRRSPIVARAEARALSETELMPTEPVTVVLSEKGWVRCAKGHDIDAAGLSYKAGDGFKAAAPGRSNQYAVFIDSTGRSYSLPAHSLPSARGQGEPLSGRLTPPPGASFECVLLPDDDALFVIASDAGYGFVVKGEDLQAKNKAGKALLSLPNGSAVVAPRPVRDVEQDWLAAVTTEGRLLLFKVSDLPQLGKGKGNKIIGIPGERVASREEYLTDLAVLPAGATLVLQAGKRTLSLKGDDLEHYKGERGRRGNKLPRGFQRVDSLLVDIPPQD
Chain of P. aeruginosa topoisomerase IV (Q9HUJ8 whole entry): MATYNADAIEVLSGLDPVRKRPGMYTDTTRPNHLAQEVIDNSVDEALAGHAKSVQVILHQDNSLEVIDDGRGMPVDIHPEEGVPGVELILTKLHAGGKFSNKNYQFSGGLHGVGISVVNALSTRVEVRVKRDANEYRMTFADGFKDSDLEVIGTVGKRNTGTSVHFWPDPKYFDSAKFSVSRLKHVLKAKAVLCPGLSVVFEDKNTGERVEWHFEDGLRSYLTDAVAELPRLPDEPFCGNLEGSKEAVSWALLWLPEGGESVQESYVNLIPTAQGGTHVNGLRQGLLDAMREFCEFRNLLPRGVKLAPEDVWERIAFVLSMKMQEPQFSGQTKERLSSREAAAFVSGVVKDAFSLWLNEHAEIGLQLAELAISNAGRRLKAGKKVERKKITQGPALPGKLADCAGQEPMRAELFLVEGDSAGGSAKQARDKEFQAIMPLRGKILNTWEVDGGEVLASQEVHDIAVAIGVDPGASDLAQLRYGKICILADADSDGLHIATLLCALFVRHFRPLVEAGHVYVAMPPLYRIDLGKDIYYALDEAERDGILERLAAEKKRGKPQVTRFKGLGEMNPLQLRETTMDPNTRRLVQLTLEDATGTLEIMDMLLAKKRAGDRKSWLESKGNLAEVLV
Chain of P. aeruginosa gyrase (Q9I7C2 whole entry): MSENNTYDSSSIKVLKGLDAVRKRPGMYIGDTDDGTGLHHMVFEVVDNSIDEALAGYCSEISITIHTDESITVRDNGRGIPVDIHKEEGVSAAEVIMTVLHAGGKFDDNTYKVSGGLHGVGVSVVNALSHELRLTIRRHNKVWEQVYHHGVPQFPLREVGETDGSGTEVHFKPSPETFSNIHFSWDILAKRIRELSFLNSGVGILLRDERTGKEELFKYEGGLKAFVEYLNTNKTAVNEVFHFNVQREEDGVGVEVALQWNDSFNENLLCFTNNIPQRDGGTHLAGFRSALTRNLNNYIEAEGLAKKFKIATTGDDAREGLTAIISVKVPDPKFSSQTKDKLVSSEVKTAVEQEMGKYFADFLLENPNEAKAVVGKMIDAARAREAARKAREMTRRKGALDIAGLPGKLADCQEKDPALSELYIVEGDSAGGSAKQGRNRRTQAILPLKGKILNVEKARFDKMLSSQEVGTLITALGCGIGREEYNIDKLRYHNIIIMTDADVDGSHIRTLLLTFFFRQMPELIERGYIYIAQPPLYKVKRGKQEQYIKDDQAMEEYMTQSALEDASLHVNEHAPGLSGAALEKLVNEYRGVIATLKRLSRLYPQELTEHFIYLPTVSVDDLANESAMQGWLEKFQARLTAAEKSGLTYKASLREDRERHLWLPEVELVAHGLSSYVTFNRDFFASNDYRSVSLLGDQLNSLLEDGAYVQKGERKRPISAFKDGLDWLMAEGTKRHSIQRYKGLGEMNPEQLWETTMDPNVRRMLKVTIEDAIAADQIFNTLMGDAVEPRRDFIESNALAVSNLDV
Chain of P. aeruginosa gyrase (P48372 whole entry): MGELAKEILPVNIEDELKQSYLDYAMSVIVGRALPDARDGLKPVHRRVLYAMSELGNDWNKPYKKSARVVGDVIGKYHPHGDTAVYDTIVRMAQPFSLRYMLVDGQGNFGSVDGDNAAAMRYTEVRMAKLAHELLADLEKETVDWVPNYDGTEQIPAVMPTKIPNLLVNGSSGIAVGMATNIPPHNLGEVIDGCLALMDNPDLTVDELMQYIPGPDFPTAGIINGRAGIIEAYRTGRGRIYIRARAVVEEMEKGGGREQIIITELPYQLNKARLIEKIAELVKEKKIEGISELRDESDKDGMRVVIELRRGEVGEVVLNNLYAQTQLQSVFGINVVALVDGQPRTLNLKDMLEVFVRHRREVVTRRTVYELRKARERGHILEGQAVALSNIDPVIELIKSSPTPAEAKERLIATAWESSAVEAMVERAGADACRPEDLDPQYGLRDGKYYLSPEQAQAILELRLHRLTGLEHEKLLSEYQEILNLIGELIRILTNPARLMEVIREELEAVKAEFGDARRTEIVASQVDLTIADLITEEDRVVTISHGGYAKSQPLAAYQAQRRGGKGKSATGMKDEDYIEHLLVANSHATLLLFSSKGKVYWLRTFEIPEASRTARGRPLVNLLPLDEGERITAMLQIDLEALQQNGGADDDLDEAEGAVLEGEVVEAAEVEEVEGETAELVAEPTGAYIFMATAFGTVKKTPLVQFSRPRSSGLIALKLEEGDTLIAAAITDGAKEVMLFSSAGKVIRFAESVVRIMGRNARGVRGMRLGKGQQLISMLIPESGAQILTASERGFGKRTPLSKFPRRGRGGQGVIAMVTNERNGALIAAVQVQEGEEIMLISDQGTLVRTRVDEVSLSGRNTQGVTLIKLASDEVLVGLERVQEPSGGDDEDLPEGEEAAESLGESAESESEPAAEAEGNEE
Chain of Human topo IIα (P11388 whole entry): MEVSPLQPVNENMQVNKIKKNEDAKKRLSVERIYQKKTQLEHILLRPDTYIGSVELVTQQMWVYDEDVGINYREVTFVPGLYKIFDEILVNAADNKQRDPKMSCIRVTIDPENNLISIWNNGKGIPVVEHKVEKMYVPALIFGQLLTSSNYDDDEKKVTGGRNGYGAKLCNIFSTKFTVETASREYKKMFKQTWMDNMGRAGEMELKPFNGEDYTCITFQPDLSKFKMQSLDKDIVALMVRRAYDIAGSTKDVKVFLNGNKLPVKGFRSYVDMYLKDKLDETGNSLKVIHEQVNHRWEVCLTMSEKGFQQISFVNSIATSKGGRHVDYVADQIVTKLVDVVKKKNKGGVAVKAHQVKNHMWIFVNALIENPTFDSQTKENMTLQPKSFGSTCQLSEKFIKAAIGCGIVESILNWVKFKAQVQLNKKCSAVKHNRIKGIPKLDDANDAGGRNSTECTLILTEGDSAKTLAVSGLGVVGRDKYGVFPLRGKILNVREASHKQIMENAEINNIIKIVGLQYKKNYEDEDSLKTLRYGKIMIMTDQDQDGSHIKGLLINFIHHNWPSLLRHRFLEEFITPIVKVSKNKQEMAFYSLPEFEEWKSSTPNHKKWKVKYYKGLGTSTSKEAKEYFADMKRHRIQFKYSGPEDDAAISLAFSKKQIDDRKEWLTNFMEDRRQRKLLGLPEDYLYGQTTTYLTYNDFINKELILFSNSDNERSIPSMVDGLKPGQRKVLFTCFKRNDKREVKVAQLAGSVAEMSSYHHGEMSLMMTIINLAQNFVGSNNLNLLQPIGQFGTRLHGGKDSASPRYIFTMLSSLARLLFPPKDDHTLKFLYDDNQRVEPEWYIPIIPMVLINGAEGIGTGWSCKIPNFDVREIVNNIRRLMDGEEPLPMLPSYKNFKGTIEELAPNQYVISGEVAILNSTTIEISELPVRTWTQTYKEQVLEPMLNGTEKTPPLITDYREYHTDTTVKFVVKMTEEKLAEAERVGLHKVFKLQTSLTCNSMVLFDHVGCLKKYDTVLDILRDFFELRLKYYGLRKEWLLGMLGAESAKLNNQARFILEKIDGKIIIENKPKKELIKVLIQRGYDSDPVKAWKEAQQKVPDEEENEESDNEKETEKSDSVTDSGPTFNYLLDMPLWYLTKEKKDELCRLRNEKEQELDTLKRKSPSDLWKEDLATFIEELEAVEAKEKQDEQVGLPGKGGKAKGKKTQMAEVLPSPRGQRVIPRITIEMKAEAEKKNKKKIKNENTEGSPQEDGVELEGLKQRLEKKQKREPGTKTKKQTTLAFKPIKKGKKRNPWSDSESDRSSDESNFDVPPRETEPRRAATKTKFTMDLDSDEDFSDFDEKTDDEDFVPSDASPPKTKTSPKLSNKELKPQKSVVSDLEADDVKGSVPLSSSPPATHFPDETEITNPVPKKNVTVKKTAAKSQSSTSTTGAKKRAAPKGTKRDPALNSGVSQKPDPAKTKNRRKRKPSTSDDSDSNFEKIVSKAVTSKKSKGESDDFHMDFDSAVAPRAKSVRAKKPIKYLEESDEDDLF

In the case of `O=c1ccc2ncc(=O)n3c2n1C[C@H]3CN1CCC(NCc2cc3c(cn2)OCCC3)CC1` [Gepotidacin, reference compound], the “MIC90 against diverse global isolates” value (E. coli) is listed as 4 µg/mL (≈ 8.92 µM), the MIC [1] is listed as > 40 µg/mL and the MIC (A. baumannii ATCC 19606) is listed as 2 µg/mL (≈ 4.46 µM). For the same molecule, the MIC (S. aureus ATCC 29213) was 0.125 µg/mL (≈ 0.279 µM), the MIC (E. coli BAA 2469) was 0.5 µg/mL (≈ 1.11 µM) and the MIC (K. pneumoniae KPNIH1) was 8 µg/mL (≈ 17.8 µM). For the same molecule, the MIC [2] was 0.63 µg/mL (≈ 1.4 µM), the “MIC90 against diverse global isolates” value (E. faecalis) was 2 µg/mL (≈ 4.46 µM) and the IC50 (Human topo IIß) was > 200 µM. The MIC (K. pneumoniae ATCC 13883) was 1 µg/mL (≈ 2.23 µM), the MIC (P. aeruginosa BAA 2797) was 1 µg/mL (≈ 2.23 µM) and the “MIC90 against diverse global isolates” value (K. pneumoniae) was 16 µg/mL (≈ 35.7 µM). It also gave an MIC (K. pneumoniae BAA 2784) of 1 µg/mL (≈ 2.23 µM), an MIC [3] of 0.47 µg/mL (≈ 1.05 µM) and an MIC (E. coli ATCC 25922 [4]) of 0.5 µg/mL (≈ 1.11 µM). The MIC (E. coli BAA 2471) was 2 µg/mL (≈ 4.46 µM), the MIC (E. coli ATCC 25922 [5]; ATCC25922, 24 h) was 0.25 µg/mL (≈ 0.557 µM) and the MIC (E. coli ATCC 25922 [5]; ATCC25922, 288 h) was 1.25 µg/mL (≈ 2.79 µM). It also gave an MIC (P. aeruginosa BAA 2794) of 0.5 µg/mL (≈ 1.11 µM), an MIC [6] of 0.83 µg/mL (≈ 1.85 µM) and an MIC (K. pneumoniae BAA 2782) of 1 µg/mL (≈ 2.23 µM). For the same molecule, the IC50 (P. aeruginosa gyrase) was 0.35 µM, the MIC (E. faecalis ATCC 29212) was 1 µg/mL (≈ 2.23 µM) and the MIC [7] was 0.42 µg/mL (≈ 0.936 µM). The “MIC90 against diverse global isolates” value (E. cloacae) was 16 µg/mL (≈ 35.7 µM), the MIC [8] was 0.13 µg/mL (≈ 0.29 µM) and the MIC (P. aeruginosa ATCC 27853) was 1 µg/mL (≈ 2.23 µM). For the same molecule, the MIC (A. baumannii BAA 2885) was 2 µg/mL (≈ 4.46 µM), the IC50 [9] was 1.56 µM and the IC50 (Human topo IIα) was > 200 µM. The “MIC90 against diverse global isolates” value (S. aureus) was 0.5 µg/mL (≈ 1.11 µM) and the MIC [10] was 0.42 µg/mL (≈ 0.936 µM).
